Measured values taken from patent US10799590B2, “Compositions containing a bitter tastant and at least one sophorolipid, and methods of reducing bitter taste attributed to a bitter tastant in an edible composition” (The United States of America, as Represented by the …, priority 2015, dated 2020).

Key:
[1] = tested on: cultured human fungiform taste papillae cells (HBO cells); assay: Calcium imaging of cultured human fungiform taste papillae (HBO) cells: response frequency, estimation of sweet potency; type: cell-based
Excerpt: In vitro cell-based assay of sweet property. Establishment and maintenance of cultures of human fungiform taste papillae cells (HBO cells): We previously established the current proprietary protocol (Ozdener, H., et al., Chem. Senses, 31(3): 279-90 (2006); Ozdener, M. H., et al., Chem. Senses, 36(7): 601-12 (2011); Ozdener, H., et al., Isolation and culture of human fungiform taste papillae cells, J. Vis. Exp., 2012 May 17;(63):e3730) which allowed us to culture human fungiform taste papillae cells retaining their physiological and molecular characteristics for more than a year. […] The human fungiform taste papillae cells were cultured according to protocols that we have published (Ozdener et al. 2006, Ozdener et al. 2011). Human fungiform taste papillae were removed and immediately placed into an isolation solution followed by enzymatic digestion. Digested fungiform papillae were then gently minced with a surgical razor and seeded on collagen type-1 coated coverslips and incubated at 36° C. in a humidified environment containing 5% CO2. The fungiform taste papillae cells were cultured in Iscove's Modified Dulbecco's medium containing 10% fetal bovine serum, 1:5 ratio of MCDB (Molecular, Cellular, and Developmental Biology) 153 medium, and a triple cocktail of antibiotics (100 U/mL/100 μg/mL, penicillin/streptomycin, and 0.5 μg/mL fungizone). Culture medium was replaced every 5-7 days by one-third of fresh culture medium. Human fungiform taste papillae cells have been maintained in culture for a period of more than 1 year without loss of viability and with retention of the molecular and biochemical properties of acutely isolated taste cells (Ozdener et al., 2011). Calcium imaging: Cultured taste cells grown for 3-4 days glass coverslips which were loaded for 30-60 min with the calcium sensitive dye fura-2 by incubating the cells in Ringer solution (145 mM NaCl, 5 mM KCl, 1 mM MgCl2, 1 mM CaCl2, 1 mM Na-pyruvate, 20 mM Hepes-Na and Cellobiose 15 mM, pH 7.2 with osmolarity adjusted to 300-310 by 5M NaCl) supplemented with […] (Molecular Probes Inc., Eugene, Oreg.) and 10 mg/ml Pluronic® F127 (Molecular Probes Inc.). Coverslips were then placed in a recording chamber and continuously bathed with Ringer solution superfusion. Stimuli were dissolved in Ringer and then pH and osmolarity readjusted if needed. Cells were exposed to sweet ([…]), bitter mixture (PTC (phenylthiocarbamide)) 2mM+Salicin 5 mM+Denatonium 2 mM), guaifenesin (GF, 3 mM) and acetaminophen (APAP, 3 mM), and various sophorolipids stimuli: sophorose, sophorolipid palmitic acid, sophorolipid stearic acid, sophorolipid oleic acid. […]

T1R3 = assay: Chorda tympani whole-nerve responses to lingual taste stimuli, T1R3-KO mice; type: in vivo; details: lingual application (FIG. 6A, 7)
Protocol: (§1) Mouse model for sweet property and bitter-masking assay. Recordings of chorda tympani (CT) whole-nerve responses: All protocols involving animals were approved by the Institutional Animal Care and Use Committees at the Monell Center prior to the experiments. The study was performed with mice from two strains: C57BL/6J inbred strain (B6; Jackson Laboratory, Bar Harbor, Me.) bearing the wild-type Tas1r3 allele was used as the control, and the C57BL/6J-Tas1r3^tm1Rjm “gene-knockout” strain (T1R3-KO) lacking the entire T1R3 coding region and devoid of T1R3 protein ([…]., et al., Science, 301: 850-853 (2003)). Afferent signals from taste cells are relayed to the brain via three major gustatory nerves: the chorda tympani, glossopharyngeal, and greater superficial petrosal. […] Neural responses resulting from chemical stimulations of the tongue were fed into an amplifier (Grass Instruments, West Warwick, R.I.) and monitored on an oscilloscope and an audio monitor. Whole-nerve responses were integrated with a time constant of 1.0 s and recorded using a computer for later analysis using a PowerLab system (PowerLab/sp4; AD Instruments, Colorado Springs, Colo.). […] To analyze nerve responses to each stimulus, the magnitudes of integrated responses at 5, 10, 15, 20, and 25 s after stimulus onset were measured and averaged. […]

[2] = tested on: chorda tympani nerve of wild-type B6 mice; assay: Chorda tympani whole-nerve responses to lingual taste stimuli, wild-type B6 mice; type: in vivo; details: lingual application (FIG. 6B, 7)
Protocol: as §1

| SMILES | %-responsive cells ([1]; cultured human taste cells, concentration 5 mM) [%] | Concentration adjusted response frequency ([1]; tested at 5 mM, sucralose 5 mM is the standard) | chorda tympani responses (T1R3) | chorda tympani responses [2] |
| --- | --- | --- | --- | --- |
| OC[C@H]1O[C@H](O[C@]2(CCl)O[C@H](CCl)[C@@H](O)[C@@H]2O)[C@H](O)[C@@H](O)[C@H]1Cl [Sucralose, sucralose] | 16.67 | 16.67 |  |  |
| OC[C@H]1O[C@@](CO)(O[C@H]2O[C@H](CO)[C@@H](O)[C@H](O)[C@H]2O)[C@@H](O)[C@@H]1O [sucrose] |  |  | nearly absent | present |
